Data reported in patent US6979686B1, “Substituted pyrazoles as p38 kinase inhibitors” (Pharmacia Corporation, priority 2001, dated 2005).
Where two headings read alike, the source gives them in different places. One block for each compound: values may come before it.

What was measured:
[1] = test system: TNF-α, U937 human histiocytic lymphoma cell line; assay: LPS stimulation of TNF production by U937 cells; format: cell-based; conditions: for inhibition at 1 µM: U-937, @ 1.0 uM; for U937 Cell % inhib @ conc. (uM): @ 1.0 uM
Outline: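 U937 cells differentiated 24 h with 20 ng/ml PMA, rested 24-48 h, used at 2 million cells/ml. Compounds in 0.1% DMSO final; LPS (E. coli, 100 ng/ml final) stimulation for 4 h at 37° C. Released TNF-α measured by ELISA; IC50 (μM).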

[2] = target: T1, human p38 kinase alpha (Homo sapiens, UniProt Q16539); assay: p38 kinase in vitro assay, phosphorylation of biotinylated PHAS-I with 32P-ATP; format: biochemical; conditions: for inhibition at 1 µM: read-out: P38 alpha kinase % inhib @ conc.
T1 construct: GST (N, cleaved yes); made in house; host or cells: E. coli DH10B
T1 sequence (Q16539 whole entry): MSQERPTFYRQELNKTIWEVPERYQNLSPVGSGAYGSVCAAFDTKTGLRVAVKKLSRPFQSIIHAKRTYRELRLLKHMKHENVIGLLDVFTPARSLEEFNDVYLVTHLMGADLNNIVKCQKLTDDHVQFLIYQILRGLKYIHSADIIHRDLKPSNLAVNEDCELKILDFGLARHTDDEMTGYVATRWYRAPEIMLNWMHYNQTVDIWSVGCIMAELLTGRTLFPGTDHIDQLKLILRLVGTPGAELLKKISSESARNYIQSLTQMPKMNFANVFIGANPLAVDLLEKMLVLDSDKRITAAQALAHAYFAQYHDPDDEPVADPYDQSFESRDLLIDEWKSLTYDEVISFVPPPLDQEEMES

[3] = Homo sapiens, U-937, TNF production, human U937 cells stimulated with LPS, read-out: U937 Cell IC50
[4] = in vitro P38-alpha kinase, read-out: P38 alpha kinase IC50
[5] = Table 5, LPS-stimulated U937 cells, TNF-α, read-out: U937 Cell Assay IC50
[6] = activated human p38 kinase alpha, PHAS-I substrate, 50 μM unlabeled ATP, read-out: p38 kinase IC50
[7] = in vitro P38-alpha kinase inhibition, read-out: P38 alpha kinase IC50
[8] = Homo sapiens, TNF production, U937 cells stimulated with LPS, read-out: U937 Cell % inhib @ conc.
[9] = Homo sapiens, TNF production in human U937 cells stimulated with LPS, read-out: U937 Cell % inhib @ conc.
[10] = TNF production, U937 cells stimulated with LPS
[11] = TNF production in human U937 cells stimulated with LPS, read-out: U937 Cell IC50

IC50 [1, 3]: 0.092 µM
IC50 [2, 4]: < 100 nM
SMILES: O=C(Nc1ccccc1F)N1CCC(c2[nH]nc(-c3ccc(F)cc3)c2-c2ccncc2)CC1 [Example B-1379]

IC50 [1, 3]: > 1 µM
IC50 [2, 7]: 4190 nM
SMILES: CNC(=O)CCC(NC(=O)c1ccno1)c1[nH]nc(-c2ccc(F)cc2)c1-c1ccncc1 (centres unmarked) [Example B-0869]

IC50 [2, 7]: 3220 nM
SMILES: O=C(NCCc1[nH]nc(-c2ccc(F)cc2)c1-c1ccncc1)c1ccc(C(F)(F)F)cc1 [Example B-1155]
inhibition at 1 µM [1, 8]: 30%

IC50 [2, 7]: 2790 nM
SMILES: COc1ccccc1C(=O)NC(Cc1ccccc1)c1[nH]nc(-c2ccc(F)cc2)c1-c1ccncc1 (centres unmarked) [Example B-0811]
inhibition at 1 µM [1, 8]: 2%

IC50 [2, 7]: 1240 nM
SMILES: CC(C)=CC(=O)NC(C)c1[nH]nc(-c2ccc(F)cc2)c1-c1ccncc1 (centres unmarked) [Example B-0547]
inhibition at 1 µM [1, 9]: 21%

IC50 [1, 5]: 2.36 µM
IC50 [2, 6]: 3200 nM
SMILES: CCOc1ccc(-c2n[nH]c(C)c2-c2ccncc2)cc1 [Example A-47]

IC50 [2, 7]: 1770 nM
SMILES: COc1ccc(CC(=O)NC(C)c2[nH]nc(-c3ccc(F)cc3)c2-c2ccncc2)cc1OC (centres unmarked) [Example B-0548]
inhibition at 1 µM [1, 9]: 28%

IC50 [2, 7]: 1900 nM
SMILES: O=C(NC(Cc1ccccc1)c1[nH]nc(-c2ccc(F)cc2)c1-c1ccncc1)C1CCCN1 (centres unmarked) [Example B-0795]
U937 Cell % inhib @ conc. (uM) ([1]; TNF production in human U937 cells stimulated with LPS): 11.0% @

P38 alpha kinase % inhib @ conc. (uM) ([2]; @ 1.0 uM): 58.0% @
SMILES: O=S(=O)(C=Cc1ccccc1)NCCc1[nH]nc(-c2ccc(F)cc2)c1-c1ccncc1 [Example B-1016]
U937 Cell % inhib @ conc. (uM) [1, 10]: 10.0% @

The remaining lines, values behind:

SMILES: COc1cccc(-c2n[nH]c(C)c2-c2ccncc2)c1 [Example A-44]
IC50 [1, 5]: 0.477 µM
IC50 [2, 6]: < 100 nM

SMILES: CNC(=O)CCC(NC(=O)COC)c1[nH]nc(-c2ccc(F)cc2)c1-c1ccncc1 (centres unmarked) [Example B-0870]
IC50 [1, 3]: > 1 µM
IC50 [2, 7]: 3130 nM

SMILES: COc1ccc(CC(=O)NCc2[nH]nc(-c3ccc(F)cc3)c2-c2ccncc2)cc1 [Example B-0036]
IC50 [1, 3]: 8.24 µM
inhibition at 1 µM ([2]; @ 1.0 uM): 92%

SMILES: O=C(NCc1[nH]nc(-c2ccc(F)cc2)c1-c1ccncc1)c1ccc([N+](=O)[O-])o1 [Example B-0031]
inhibition at 10 µM ([1]; Homo sapiens, U-937, @ 10.0 uM, TNF production, U937 cells stimulated with LPS, read-out: U937 Cell % inhib @ conc.): 100%
inhibition at 1 µM ([2]; @ 1.0 uM): 94%

SMILES: COc1ccc2[nH]c3c(c2c1)CCN(C(=O)Cn1nc(-c2ccc(F)cc2)c(-c2ccncc2)c1C)C3 [Example B-2408]
U937 Cell IC50, uM or % inhib @ conc. (uM): % inhib ([1]; @ 10.0 uM, TNF production, U937 cells stimulated with LPS): 10.0% @
P38 alpha kinase IC50, uM or % inhib @ conc. (uM): % inhib ([2]; @ 10.0 uM): 39.0% @

SMILES: COc1ccc(S(=O)(=O)NC(Cc2ccccc2)c2[nH]nc(-c3ccc(F)cc3)c2-c2ccncc2)cc1OC (centres unmarked) [Example B-0722]
IC50 ([1]; Homo sapiens, U-937, TNF production in human U937 cells stimulated with LPS, read-out: U937 Cell IC50): > 1 µM
IC50 [2, 7]: 70 nM

SMILES: CNC(=O)CCC(NC(=O)C(C)C)c1[nH]nc(-c2ccc(F)cc2)c1-c1ccncc1 (centres unmarked) [Example B-0863]
inhibition at 1 µM [1, 8]: 25%
IC50 [2, 7]: 810 nM

SMILES: CCCCCCCCOc1cccc(NC(=O)Cn2nc(-c3ccc(F)cc3)c(-c3ccncc3)c2C)c1 [Example B-2442]
IC50 ([1]; TNF production, U937 cells stimulated with LPS, read-out: U937 Cell IC50, uM or % inhib @ conc. (uM): IC50): > 10 µM
P38 alpha kinase IC50, uM or % inhib @ conc. (uM): % inhib ([2]; @ 10.0 uM): 86.0% @

SMILES: COC(=O)c1ccccc1NC(=O)NCCc1[nH]nc(-c2ccc(F)cc2)c1-c1ccncc1 [Example B-0946]
U937 Cell % inhib @ conc. (uM) [1, 10]: 31.0% @
P38 alpha kinase % inhib @ conc. (uM) ([2]; @ 1.0 uM): 76.0% @

SMILES: COc1cccc(CC(=O)NCCc2[nH]nc(-c3ccc(F)cc3)c2-c2ccncc2)c1 [Example B-1001]
U937 Cell % inhib @ conc. (uM) [1, 10]: 31.0% @
P38 alpha kinase % inhib @ conc. (uM) ([2]; @ 1.0 uM): 63.0% @

SMILES: O=C(NCCc1[nH]nc(-c2ccc(F)cc2)c1-c1ccncc1)Nc1ccc(Cc2ccccc2)cc1 [Example B-0943]
U937 Cell % inhib @ conc. (uM) [1, 10]: 24.0% @
P38 alpha kinase % inhib @ conc. (uM) ([2]; @ 10.0 uM): 63.0% @

SMILES: CN(C(=O)NC(Cc1ccccc1)c1[nH]nc(-c2ccc(F)cc2)c1-c1ccncc1)c1ccccc1 (centres unmarked) [Example B-0776]
IC50 [1, 11]: > 1 µM
IC50 [2, 7]: 900 nM

SMILES: O=C(c1ccccn1)N1CCC(c2[nH]nc(-c3ccc(F)cc3)c2-c2ccncc2)CC1 [Example B-1386]
IC50 [1, 3]: 0.25 µM
IC50 [2, 4]: < 100 nM

SMILES: CNC(=O)CCC(NC(=O)C1CC1)c1[nH]nc(-c2ccc(F)cc2)c1-c1ccncc1 (centres unmarked) [Example B-0866]
inhibition at 1 µM [1, 8]: 28%
IC50 [2, 7]: 1380 nM

SMILES: O=C(NCCc1[nH]nc(-c2ccc(F)cc2)c1-c1ccncc1)Nc1cccc(Cl)c1Cl [Example B-0980]
U937 Cell % inhib @ conc. (uM) [1, 10]: 31.0% @
P38 alpha kinase % inhib @ conc. (uM) ([2]; @ 1.0 uM): 68.0% @

SMILES: CC(NC(=O)NCc1ccccc1)c1[nH]nc(-c2ccc(F)cc2)c1-c1ccncc1 (centres unmarked) [Example B-0580]
IC50 [1, 11]: 0.84 µM
IC50 [2, 7]: 2230 nM
